pEC50: −log10 of the molar value.
Experiments:
[1] = biological target: T1, ATP-binding cassette subfamily G member 2 (ABCG2) (Homo sapiens, UniProt Q9UNQ0); test: [3H]-mitoxantrone accumulation and efflux assay in ABCG2-overexpressing cells; format: cell-based
T1 sequence (Q9UNQ0 1-655): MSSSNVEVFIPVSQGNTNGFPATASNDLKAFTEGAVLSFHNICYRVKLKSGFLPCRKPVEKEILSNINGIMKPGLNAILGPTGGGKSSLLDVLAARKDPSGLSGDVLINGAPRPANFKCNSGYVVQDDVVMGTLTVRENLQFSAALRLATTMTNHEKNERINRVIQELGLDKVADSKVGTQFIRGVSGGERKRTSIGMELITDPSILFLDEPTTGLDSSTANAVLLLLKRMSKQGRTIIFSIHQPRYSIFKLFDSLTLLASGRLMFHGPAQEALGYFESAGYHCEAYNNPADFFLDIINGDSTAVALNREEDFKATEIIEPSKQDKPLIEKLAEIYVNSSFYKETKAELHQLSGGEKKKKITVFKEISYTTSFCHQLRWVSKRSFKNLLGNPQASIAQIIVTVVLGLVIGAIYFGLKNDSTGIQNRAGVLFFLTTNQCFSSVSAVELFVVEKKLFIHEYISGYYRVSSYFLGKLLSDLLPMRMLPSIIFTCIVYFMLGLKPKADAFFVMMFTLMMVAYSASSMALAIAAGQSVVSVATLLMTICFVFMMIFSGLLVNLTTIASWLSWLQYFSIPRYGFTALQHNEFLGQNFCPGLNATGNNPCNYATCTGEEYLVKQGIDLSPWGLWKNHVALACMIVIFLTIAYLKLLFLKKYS

[2] = biological target: T1, ATP-binding cassette subfamily G member 2 (ABCG2); test: biochemical

pEC50 [2] | Structure (SMILES) | [3H]-mitoxantrone accumulation and efflux assay in ABCG2-overexpressing cells (1) [1]
– | COc1ccc2c3c([nH]c2c1)[C@H](C=C(C)C)N1C(=O)[C@@H]2CCCN2C(=O)[C@@H]1C3 [Fumitremorgin C] | efficacy of cabozantinib on increasing intracellular accumulation of [^3H]-MX in resistant cell line is comparable to that of FTC
6.13 | COc1cc2nccc(Oc3ccc(NC(=O)C4(C(=O)Nc5ccc(F)cc5)CC4)cc3)c2cc1OC [cabozantinib] | –

— PMC5392419 (Pharmacological research, 2017)
